{
  "source": "patent US20230014151A1",
  "about": "“COMBINATION ANTIVIRAL THERAPY FOR MEASLES” (The Trustees of Columbia University in the City of New York, priority 2019, published 2023)",
  "key": {"MeV IC323-EGFP-F L454W": {"test_system": "MeV IC323-EGFP-F L454W", "test": "organotypic brain cultures (OBC) infected with MeV bearing L454W F", "format": "cell-based, mice"}, "MeV “WTFb” strain": {"test_system": "MeV “WTFb” strain", "test": "in vivo efficacy, intranasal peptides in MeV-infected cotton rats", "settings": "intranasal 24 h and 12 h before infection, 5 m/kg dose, 4 days post-infection", "protocol": "FIGS. 84-93 further describe the invention. […] Intranasal administration of MeV-derived peptides protects cotton rats from MV infection. Cotton rats (n=4) were infected intranasally with MeV “WTFb” strain. Treatment was given intranasally 24 h and 12 h before infection in 100 ul (5 m/kg dose of peptides). The animals were euthanized 4 days post-infection."}, "wt MeV": {"test_system": "wt MeV", "settings": "in vitro, ex vivo; cited from earlier work"}, "[1]": {"molecular_target": "viral glycoproteins (H and F); CD150", "sequence (Q786F3 24-112)": "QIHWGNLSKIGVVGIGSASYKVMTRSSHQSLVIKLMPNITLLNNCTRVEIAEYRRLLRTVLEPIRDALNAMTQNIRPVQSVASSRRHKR", "sequence (Q786F3 113-550)": "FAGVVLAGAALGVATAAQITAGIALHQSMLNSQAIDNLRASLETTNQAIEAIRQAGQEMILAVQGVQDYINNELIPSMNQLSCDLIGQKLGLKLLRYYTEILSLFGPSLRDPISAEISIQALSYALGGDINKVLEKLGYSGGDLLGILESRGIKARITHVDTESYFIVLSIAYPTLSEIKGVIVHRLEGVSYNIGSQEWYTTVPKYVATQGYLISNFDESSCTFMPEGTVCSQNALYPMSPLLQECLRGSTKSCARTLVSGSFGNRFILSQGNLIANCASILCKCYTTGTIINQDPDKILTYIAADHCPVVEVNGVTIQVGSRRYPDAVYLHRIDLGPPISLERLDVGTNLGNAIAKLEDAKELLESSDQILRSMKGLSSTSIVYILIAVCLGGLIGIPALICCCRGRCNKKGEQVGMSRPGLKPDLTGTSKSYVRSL", "test": "beta-galactosidase complementation-based fusion assay, CD150 target cells"}, "[2]": {"molecular_target": "viral glycoproteins (H and F); Nectin-4 (Measles virus, UniProt Q786F3)", "sequence (Q786F3 24-112)": "as the sequence (Q786F3 24-112) above", "test": "beta-galactosidase complementation-based fusion assay, Nectin-4 target cells"}, "virus bearing L454W F": {"test_system": "virus bearing L454W F", "test": "lethal infection of suckling mice, intranasal peptide", "settings": "intranasal administration"}, "BG505 (HIV-1 strain)": {"test_system": "BG505 (HIV-1 strain)", "settings": "read-out: IC50 BG505; pseudovirus, TZM-BL cells"}, "[3]": {"test_system": "vesicular stomatitis virus (VSV)", "settings": "16 h"}, "[4]": {"test_system": "murine leukemia viruses (MLV)", "settings": "read-out: IC50 MLV; pseudovirus, TZM-BL cells"}, "B41 (HIV-1 strain)": {"test_system": "B41 (HIV-1 strain)", "settings": "read-out: IC50 B41; pseudovirus, TZM-BL cells"}, "16055 (HIV-1 strain)": {"test_system": "16055 (HIV-1 strain)", "settings": "read-out: IC50 16055; pseudovirus, TZM-BL cells"}, "MN (HIV-1 strain)": {"test_system": "MN (HIV-1 strain)", "settings": "read-out: IC50 MN; pseudovirus, TZM-BL cells"}},
  "note": "Where two headings read alike, the source gives them in different places. Square brackets hold non-standard residues; d marks the D form. Peptide text beside a SMILES is read from it. * marks the point of attachment. Cbz = O=C(OCc1ccccc1)*",
  "data": [
    {"smiles": "CC[C@H](C)[C@H](NC(=O)[C@H](C)NC(=O)[C@H](CC(N)=O)NC(=O)CNC(=O)[C@H](CC(C)C)NC(=O)[C@H](CC(N)=O)NC(=O)[C@@H](NC(=O)CNC(=O)[C@@H](NC(=O)[C@H](CC(=O)O)NC(=O)[C@H](CC(C)C)NC(=O)[C@H](CCCNC(=N)N)NC(=O)[C@H](CCC(=O)O)NC(=O)[C@H](CC(C)C)NC(=O)[C@H](CO)NC(=O)[C@@H](NC(=O)[C@@H]1CCCN1C(=O)[C@@H]1CCCN1C(C)=O)[C@@H](C)CC)C(C)C)[C@@H](C)O)C(=O)N[C@@H](C)C(=O)N[C@@H](CCCCN)C(=O)N[C@@H](CC(C)C)C(=O)N[C@@H](CCC(=O)O)C(=O)N[C@@H](CC(=O)O)C(=O)N[C@@H](C)C(=O)N[C@@H](CCCCN)C(=O)N[C@@H](CCC(=O)O)C(=O)N[C@@H](CC(C)C)C(=O)N[C@@H](CC(C)C)C(=O)N[C@@H](CCC(=O)O)C(=O)N[C@@H](CO)C(=O)N[C@@H](CO)C(=O)N[C@@H](CC(=O)O)C(=O)N[C@@H](CCC(N)=O)C(=O)N[C@H](C(=O)N[C@@H](CC(C)C)C(=O)N[C@@H](CCCNC(=N)N)C(=O)NCC(=O)N[C@@H](CO)C(=O)NCC(=O)N[C@@H](CO)C(=O)NCC(=O)N[C@@H](CSC1CC(=O)N(CCCC(=O)NCCOCCOCCOCCOCCC(=O)NCCN(CCNC(=O)CCOCCOCCOCCOCCNC(=O)CCCN2C(=O)CC(SC[C@H](NC(=O)CNC(=O)[C@H](CO)NC(=O)CNC(=O)[C@H](CO)NC(=O)CNC(=O)[C@H](CCCNC(=N)N)NC(=O)[C@H](CC(C)C)NC(=O)[C@@H](NC(=O)[C@H](CCC(N)=O)NC(=O)[C@H](CC(=O)O)NC(=O)[C@H](CO)NC(=O)[C@H](CO)NC(=O)[C@H](CCC(=O)O)NC(=O)[C@H](CC(C)C)NC(=O)[C@H](CC(C)C)NC(=O)[C@H](CCC(=O)O)NC(=O)[C@H](CCCCN)NC(=O)[C@H](C)NC(=O)[C@H](CC(=O)O)NC(=O)[C@H](CCC(=O)O)NC(=O)[C@H](CC(C)C)NC(=O)[C@H](CCCCN)NC(=O)[C@H](C)NC(=O)[C@@H](NC(=O)[C@H](C)NC(=O)[C@H](CC(N)=O)NC(=O)CNC(=O)[C@H](CC(C)C)NC(=O)[C@H](CC(N)=O)NC(=O)[C@@H](NC(=O)CNC(=O)[C@@H](NC(=O)[C@H](CC(=O)O)NC(=O)[C@H](CC(C)C)NC(=O)[C@H](CCCNC(=N)N)NC(=O)[C@H](CCC(=O)O)NC(=O)[C@H](CC(C)C)NC(=O)[C@H](CO)NC(=O)[C@@H](NC(=O)[C@@H]3CCCN3C(=O)[C@@H]3CCCN3C(C)=O)[C@@H](C)CC)C(C)C)[C@@H](C)O)[C@@H](C)CC)[C@@H](C)CC)C(=O)O)C2=O)CCO[C@H]2CC[C@@]3(C)C(=CC[C@H]4[C@@H]5CC[C@H]([C@H](C)CCCC(C)C)[C@@]5(C)CC[C@@H]43)C2)C1=O)C(=O)O)[C@@H](C)CC", "note": "(stereo partly shown) [[HRC450-485-peg4]2-chol]", "values": [
      {"measurement": "spread of virus in OBC (fluorescence)", "setting": "MeV IC323-EGFP-F L454W; 10 nM", "value": "only partially inhibitory"},
      {"measurement": "spread of virus in OBC (fluorescence)", "setting": "MeV IC323-EGFP-F L454W; 100 nM", "value": "only isolated single infected cells were observed"},
      {"measurement": "reduction in the number of MeV N RNA copies", "setting": "MeV IC323-EGFP-F L454W; IFNAR1KO OBC, 10 nM, treated post-infection, vs untreated", "value": 4, "unit": "fold"},
      {"measurement": "reduction of the viral load (MeV N RNA copies, RT-qPCR)", "setting": "MeV IC323-EGFP-F L454W; IFNAR1KO OBC, 100 nM, treated post-infection, vs untreated", "value": 2, "unit": "log"},
      {"measurement": "variation of the viral load", "setting": "MeV IC323-EGFP-F L454W; IFNAR1KO OBC, concentrations below 10 nM", "value": "No significant variation of the viral load"},
      {"measurement": "dissemination of virus in OBC expressing human CD150 (SLAM)", "setting": "MeV IC323-EGFP-F L454W; OBC from IFNAR1KO mice expressing human CD150, highest concentration", "value": "blocked dissemination of MeV IC323-EGFP-F L454W at least as well as WT virus"},
      {"measurement": "spread of virus in OBC (fluorescence)", "setting": "MeV IC323-EGFP-F L454W; either 100 nM or 10 nM, four days after infection", "value": "blocks the spread of MeV-IC323-EGFP-F L454W"},
      {"measurement": "MeV titration of lung homogenates", "setting": "MeV “WTFb” strain", "value": "reduces the viral titer compared to the untreated animals"},
      {"measurement": "blocking of wt MeV infection (previous work)", "setting": "wt MeV", "value": "blocks infection with wt MeV in vitro, ex vivo and in vivo in cotton rats and mice"},
      {"measurement": "IC50", "setting": "[1]", "value": "0.1 ± 0.0651", "unit": "µM"},
      {"measurement": "IC90", "setting": "[1]; read-out: CD150 IC90", "value": "0.698 ± 0.0223", "unit": "µM"},
      {"measurement": "IC50", "setting": "[2]", "value": "0.125 ± 0.175", "unit": "µM"},
      {"measurement": "IC90", "setting": "[2]", "value": "0.379 ± 0.3", "unit": "µM"},
      {"measurement": "IC90", "setting": "[2]; read-out: Nectin4 IC90", "value": "0.379 ± 0.3", "unit": "µM"},
      {"measurement": "protection from lethal infection", "setting": "virus bearing L454W F", "value": "protects suckling mice from lethal infection"}
    ]},
    {"smiles": "O=C(CNC(=O)[C@H](Cc1ccccc1)NC(=O)[C@@H](Cc1ccccc1)NC(=O)OCc1ccccc1)NCC(=O)N[C@@H](CO)C(=O)NCC(=O)N[C@@H](CO)C(=O)NCC(=O)N[C@@H](CS)C(=O)O", "note": "[FIP, Z-D-FFG-GSGSG-C (SEQ ID NO. 52)] (Cbz-[dF]FGGSGSGC-OH)", "values": [
      {"measurement": "IC50", "setting": "BG505 (HIV-1 strain)", "value": "> 5", "unit": "µM"},
      {"measurement": "IC50", "setting": "[3]", "value": "> 5", "unit": "µM"},
      {"measurement": "IC50", "setting": "[4]", "value": "> 5", "unit": "µM"},
      {"measurement": "IC50", "setting": "B41 (HIV-1 strain)", "value": "> 5", "unit": "µM"},
      {"measurement": "IC90", "setting": "[2]", "value": "> 10", "unit": "µM"},
      {"measurement": "IC50", "setting": "[2]; IC50, Table 2 (salient peptides), Nectin-4 target cells", "value": "9.72 ± 2.73", "unit": "µM"},
      {"measurement": "IC50", "setting": "[2]; Nectin4 IC50, Table 3 (extended version)", "value": "9.72 ± 2.73", "unit": "µM"},
      {"measurement": "IC90", "setting": "[2]; read-out: Nectin4 IC90", "value": "> 10", "unit": "µM"},
      {"measurement": "IC50", "setting": "16055 (HIV-1 strain)", "value": "> 5", "unit": "µM"},
      {"measurement": "IC50", "setting": "MN (HIV-1 strain)", "value": "> 5", "unit": "µM"}
    ]}
  ]
}
